The values below come from ChEMBL document CHEMBL4725392, “Orally Bioavailable Small-Molecule CD73 Inhibitor (OP-5244) Reverses Immunosuppression through Blockade of Adenosine Production” (J Med Chem, 2020).

In data set [1] the target is T1, 5'-nucleotidase (Homo sapiens, UniProt P21589). Description: Inhibition of human C-terminal His6-tagged CD73 expressed in CHO cells preincubated for 15 mins followed by AMP addition and measured after 10 mins by malachite green reagent based assay. It counts as cell-based.
T1 sequence (P21589 whole entry): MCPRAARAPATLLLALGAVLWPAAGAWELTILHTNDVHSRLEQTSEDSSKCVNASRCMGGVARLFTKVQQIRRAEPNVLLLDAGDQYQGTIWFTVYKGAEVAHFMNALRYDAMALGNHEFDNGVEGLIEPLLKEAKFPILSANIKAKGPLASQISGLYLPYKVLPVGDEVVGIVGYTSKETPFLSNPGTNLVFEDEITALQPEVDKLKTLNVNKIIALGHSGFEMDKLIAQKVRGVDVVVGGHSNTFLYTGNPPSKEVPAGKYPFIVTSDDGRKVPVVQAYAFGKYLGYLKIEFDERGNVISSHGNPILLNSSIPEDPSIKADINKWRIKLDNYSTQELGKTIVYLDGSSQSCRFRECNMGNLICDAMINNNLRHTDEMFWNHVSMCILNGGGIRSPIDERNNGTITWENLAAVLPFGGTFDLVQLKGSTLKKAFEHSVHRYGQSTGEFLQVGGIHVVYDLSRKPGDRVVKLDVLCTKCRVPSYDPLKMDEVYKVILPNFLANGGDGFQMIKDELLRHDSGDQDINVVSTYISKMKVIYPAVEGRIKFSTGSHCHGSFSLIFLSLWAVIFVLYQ
Data set [2] has as its target T1, 5'-nucleotidase. In words: Inhibition of CD73 in human NCI-H1568 cells assessed as reduction in AMP-induced ADO expression preincubated for 15 mins followed by AMP addition and measured after 1 hr by LC-MS/MS analysis. The class given is cell-based.
The target of data set [3] is T2, 5'-nucleotidase (Mus musculus, UniProt Q61503).
T2 sequence (Q61503 whole entry): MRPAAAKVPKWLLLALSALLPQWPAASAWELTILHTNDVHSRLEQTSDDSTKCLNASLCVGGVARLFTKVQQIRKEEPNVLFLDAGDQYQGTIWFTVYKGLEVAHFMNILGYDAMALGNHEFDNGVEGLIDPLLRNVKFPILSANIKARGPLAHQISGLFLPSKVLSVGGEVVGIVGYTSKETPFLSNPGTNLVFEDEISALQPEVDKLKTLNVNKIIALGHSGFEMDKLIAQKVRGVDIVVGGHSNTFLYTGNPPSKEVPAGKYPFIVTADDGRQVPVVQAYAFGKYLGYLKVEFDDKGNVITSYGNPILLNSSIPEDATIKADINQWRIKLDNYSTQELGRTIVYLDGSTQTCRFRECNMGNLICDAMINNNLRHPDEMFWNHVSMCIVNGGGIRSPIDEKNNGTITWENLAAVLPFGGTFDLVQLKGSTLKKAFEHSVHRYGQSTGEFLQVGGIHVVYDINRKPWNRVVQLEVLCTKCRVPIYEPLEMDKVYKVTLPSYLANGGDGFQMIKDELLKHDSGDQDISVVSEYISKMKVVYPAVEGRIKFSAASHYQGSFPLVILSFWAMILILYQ
In words: Inhibition of CD73 in mouse EMT6 cells assessed as reduction in AMP-induced ADO expression preincubated for 15 mins followed by AMP addition and measured after 1 hr by LC-MS/MS analysis. The class given is cell-based.

A short description of data set [4]: AUC infinity in mouse at 200 mg/kg, po. It counts as ADME, organism-based. To be noted: in vivo. Also noted: route oral, time infinity, dose 200 mg/kg.
Data set [5] can be described thus: Cmax in mouse at 200 mg/kg, po. It counts as ADME, organism-based. Also noted: route oral, dose 200 mg/kg. To be noted: in vivo.
The nature of data set [6]: Terminal half life in mouse at 200 mg/kg, po. It counts as ADME, organism-based. To be noted: in vivo, read-out: beta t1/2 (converted).
The nature of data set [7]: AUC infinity in rat at 50 mg/kg, po. It counts as ADME, organism-based. Also noted: time infinity, route oral, dose 50 mg/kg. To be noted: in vivo.
The nature of data set [8]: Cmax in rat at 50 mg/kg, po. To be noted: in vivo. On the set-up: route oral, dose 50 mg/kg. It counts as ADME, organism-based.
Data set [9] is described as follows: Terminal half life in rat at 50 mg/kg, po. To be noted: in vivo, read-out: beta t1/2 (converted). It counts as ADME, organism-based.

Molecules are shown by their SMILES.

`CN(CC(C)(OC[C@H]1O[C@@H](n2ncc3c(NC4CCCC4)nc(Cl)nc32)[C@H](O)[C@@H]1O)P(=O)(O)O)S(C)(=O)=O` (mixture of isomers) had a concentration for half-maximal inhibition (IC50) in data set [1] of 97 nM. Regarding `O=P(O)(O)CP(=O)(O)OC[C@H]1O[C@@H](n2nnc3c(NCc4ccccc4Cl)nc(Cl)nc32)[C@H](O)[C@@H]1O`, the IC50 in [1] amounted to 3.9 nM. On to `COP(=O)(CP(=O)(O)O)OC[C@H]1O[C@@H](n2ncc3c(NCc4ccccc4Cl)nc(Cl)nc32)[C@H](O)[C@@H]1O` (some centres undefined), for which the 50% inhibitory concentration (IC50) in data set [1] amounted to 24.7 nM. The same measure, in the same setting: the result for `O=P(O)(O)COCC[C@H]1O[C@@H](n2ncc3c(NCc4ccccc4Cl)nc(Cl)nc32)[C@H](O)[C@@H]1O` reads 1200 nM. On to `Nc1ncnc2c1ncn2[C@@H]1O[C@H](COP(=O)(O)CP(=O)(O)O)[C@@H](O)[C@H]1O` [PHOSPHOMETHYLPHOSPHONIC ACID ADENOSYL ESTER], for which the IC50 in [1] is 2650 nM. Moreover, the EC50 in data set [2] was 16300 nM. `CC(CCO)(OC[C@H]1O[C@@H](n2ncc3c(NC4CCCC4)nc(Cl)nc32)[C@H](O)[C@@H]1O)P(=O)(O)O` (mixture of isomers) showed a 50% inhibitory concentration (IC50) in data set [1] of 31 nM. On the same count and under the same terms, the result for `N#CC(OC[C@H]1O[C@@H](n2ncc3c(NC4CCCC4)nc(Cl)nc32)[C@H](O)[C@@H]1O)P(=O)(O)O` (mixture of isomers) reads 559 nM; that for `CN(c1nc(Cl)nc2c1nnn2[C@@H]1O[C@H](COP(=O)(O)CP(=O)(O)O)[C@@H](O)[C@H]1O)[C@H]1CCc2ccccc21`, 1.3 nM.

Turning to `C[C@@](CO)(OC[C@H]1O[C@@H](n2ncc3c(NC4CCCC4)nc(Cl)nc32)[C@H](O)[C@@H]1O)P(=O)(O)O`, the half-inhibitory concentration (IC50) in [1] stood at 0.51 nM. Besides, the EC50 came out at 6.9 nM in data set [2] and 41 nM in [3]. In addition, the area under the curve AUC(0-inf) in [4] amounted to 54.2 µM·h. Moreover, the concentration in [5] peaked (Cmax) at 54.9 µM. The half-life in [6] is 2.88 h. The compound `CC(CS(C)(=O)=O)(OC[C@H]1O[C@@H](n2ncc3c(NC4CCCC4)nc(Cl)nc32)[C@H](O)[C@@H]1O)P(=O)(O)O` (mixture of isomers) had an IC50 in [1] of 23 nM. In [1], `O=P(O)(O)CS(=O)(=O)NC[C@H]1O[C@@H](n2ncc3c(NCc4ccccc4Cl)nc(Cl)nc32)[C@H](O)[C@@H]1O` registered an IC50 of 328 nM.

`O=P(O)(O)C(CO)OC[C@H]1O[C@@H](n2ncc3c(NC4CCCC4)nc(Cl)nc32)[C@H](O)[C@@H]1O` (mixture of isomers) showed an IC50 in data set [1] of 2.4 nM. On the same count and under the same terms, the result for `O=C(CP(=O)(O)O)OC[C@H]1O[C@@H](n2ncc3c(NCc4ccccc4Cl)nc(Cl)nc32)[C@H](O)[C@@H]1O` reads 510 nM; that for `COC[C@@](CO)(OC[C@H]1O[C@@H](n2ncc3c(NC4CCCC4)nc(Cl)nc32)[C@H](O)[C@@H]1O)P(=O)(O)O`, 1 nM.

Turning to `C[C@H](Nc1cc(Cl)nc2c1cnn2[C@@H]1O[C@H](COP(=O)(O)CP(=O)(O)O)[C@@H](O)[C@H]1O)c1ccccc1F`, the EC50 in data set [3] was found to be 198 nM.

Compound `CS(=O)(=O)C(OC[C@H]1O[C@@H](n2ncc3c(NC4CCCC4)nc(Cl)nc32)[C@H](O)[C@@H]1O)P(=O)(O)O` (mixture of isomers) showed an IC50 in data set [1] of 193 nM. Still for that read-out and setting: the value for `COCC(CO)(OC[C@H]1O[C@@H](n2ncc3c(NC4CCCC4)nc(Cl)nc32)[C@H](O)[C@@H]1O)P(=O)(O)O` (mixture of isomers) was 0.53 nM. In [1], `O=P(O)(O)C(CO)(CO)OC[C@H]1O[C@@H](n2ncc3c(NC4CCCC4)nc(Cl)nc32)[C@H](O)[C@@H]1O` had a half-maximal inhibitory concentration (IC50) of 0.57 nM. Further, the half-maximal effective concentration (EC50) in [2] worked out at 3.7 nM; in data set [3], 46 nM. In data set [4], this compound gave an AUC(0-inf) of 95.6 µM·h. Besides, the maximum concentration (Cmax) in [5] was determined as 67.4 µM. In [6], the half-life was 3.3 h. For `COP(=O)(O)CP(=O)(O)OC[C@H]1O[C@@H](n2ncc3c(NCc4ccccc4Cl)nc(Cl)nc32)[C@H](O)[C@@H]1O`, in data set [1], the half-maximal inhibitory concentration (IC50) came to 131 nM.

`O=P(O)(O)C(OC[C@H]1O[C@@H](n2ncc3c(NC4CCCC4)nc(Cl)nc32)[C@H](O)[C@@H]1O)c1nnn[nH]1` (mixture of isomers) came in with a half-maximal inhibitory concentration (IC50) in [1] of 28 nM.

For `CN(C)CC(C)(OC[C@H]1O[C@@H](n2ncc3c(NC4CCCC4)nc(Cl)nc32)[C@H](O)[C@@H]1O)P(=O)(O)O` (mixture of isomers), the IC50 in [1] was over 5000 nM. The same measure, in the same setting: the value for `CSCC(C)(OC[C@H]1O[C@@H](n2ncc3c(NC4CCCC4)nc(Cl)nc32)[C@H](O)[C@@H]1O)P(=O)(O)O` (mixture of isomers) was 10 nM; that for `COCC(OC[C@H]1O[C@@H](n2ncc3c(NC4CCCC4)nc(Cl)nc32)[C@H](O)[C@@H]1O)P(=O)(O)O` (mixture of isomers) was 0.96 nM. In [1], `O=P(O)(O)CSC[C@H]1O[C@@H](n2ncc3c(NCc4ccccc4Cl)nc(Cl)nc32)[C@H](O)[C@@H]1O` registered a half-inhibitory concentration (IC50) of 164 nM. Take `O=C(O)C(OC[C@H]1O[C@@H](n2ncc3c(NC4CCCC4)nc(Cl)nc32)[C@H](O)[C@@H]1O)P(=O)(O)O` (mixture of isomers): inhibition in [1] was half-maximal at 108 nM (IC50). The same measure, in the same setting: the result for `O=P(O)(O)COC[C@H]1O[C@@H](n2ncc3c(NC4CCCC4)nc(Cl)nc32)[C@H](O)[C@@H]1O` reads 11 nM. With `O=P(O)(O)COC[C@H]1O[C@@H](n2ncc3c(NCc4ccccc4Cl)nc(Cl)nc32)[C@H](O)[C@@H]1O`, the half-maximal inhibitory concentration (IC50) in [1] came to 29 nM. This compound also showed an area under the curve AUC(0-inf) in [7] of 0.66 µM·h. In data set [8], this compound had a Cmax of 0.11 µM. Moreover, the half-life in data set [9] is 1.9 h.

In turn, `O=P(O)(O)C(OC[C@H]1O[C@@H](n2ncc3c(NC4CCCC4)nc(Cl)nc32)[C@H](O)[C@@H]1O)C(F)(F)F` (mixture of isomers) gave a concentration for half-maximal inhibition (IC50) in data set [1] of 387 nM. Turning to `O=P(O)(O)CS(=O)(=O)C[C@H]1O[C@@H](n2ncc3c(NCc4ccccc4Cl)nc(Cl)nc32)[C@H](O)[C@@H]1O`, the half-inhibitory concentration (IC50) in data set [1] came out at 13 nM. The same compound had an area under the curve AUC(0-inf) in data set [7] of 0.54 µM·h. Also, the Cmax in [8] is 0.06 µM. In addition, the half-life in [9] was 3 h. In turn, `CN(C[C@H]1O[C@@H](n2ncc3c(NCc4ccccc4Cl)nc(Cl)nc32)[C@H](O)[C@@H]1O)C(=O)CP(=O)(O)O` returned a half-maximal inhibitory concentration (IC50) in data set [1] of 248 nM.

In data set [1], `O=P(O)(O)CCOC[C@H]1O[C@@H](n2ncc3c(NCc4ccccc4Cl)nc(Cl)nc32)[C@H](O)[C@@H]1O` yielded a half-maximal inhibitory concentration (IC50) of 88 nM. Same read-out and setting: the result for `CC(CO)(OC[C@H]1O[C@@H](n2ncc3c(NC4CCCC4)nc(Cl)nc32)[C@H](O)[C@@H]1O)P(=O)(O)O` (mixture of isomers) reads 1.3 nM; that for `COP(=O)(O)CP(=O)(OC)OC[C@H]1O[C@@H](n2ncc3c(NCc4ccccc4Cl)nc(Cl)nc32)[C@H](O)[C@@H]1O` (some centres undefined), 2870 nM; that for `C[C@](CO)(OC[C@H]1O[C@@H](n2ncc3c(NC4CCCC4)nc(Cl)nc32)[C@H](O)[C@@H]1O)P(=O)(O)O`, 11.7 nM. Turning to `CC(OC[C@H]1O[C@@H](n2ncc3c(NC4CCCC4)nc(Cl)nc32)[C@H](O)[C@@H]1O)P(=O)(O)O` (mixture of isomers), in [1], the IC50 came to 18 nM. Same read-out and setting: the value for `CN(c1nc(Cl)nc2c1cnn2[C@@H]1O[C@H](COP(=O)(O)CP(=O)(O)O)[C@@H](O)[C@H]1O)[C@H]1CCc2ccccc21` was 0.52 nM.

In the case of `CN(Cc1ccccc1)c1nc(Cl)nc2c1ncn2[C@@H]1O[C@H](COP(=O)(O)CP(=O)(O)O)[C@@H](O)[C@H]1O`, the 50% inhibitory concentration (IC50) in [1] turned out to be 3 nM.

Broadly, the IC50 is the concentration that inhibits the measured activity by half. Lower therefore signals inhibition by little substance. By EC50 is commonly meant the concentration needed to bring the measured effect to its halfway point. For orientation: AUC(0-inf) means total exposure, with the tail of the curve extrapolated. Low values mean low exposure, high ones high exposure. Usually Cmax stands for the highest concentration seen after dosing.
